Measurements as given in patent publication US20070225245A1, “Viral vector driven mutant bacterial cytosine deaminase gene and uses thereof” (priority 1998, published 2007).

System: Intracranial U87MG Human Gliomas
Assay: Survival, intracranial glioma, intratumoral Ad and systemic 5-FC
Type: in vivo, SCID mice
Conditions: for Survival 20% / Survival Median: Saline (no virus) + 5-FC
Protocol: U87MG and D54MG cells (5×10^5) were stereotactically injected into the right frontal cortex of SCID mice. Tumors were established for 5 days before intratumoral injection of AdCMVCD (10^8 or 10^9 pfu/mouse). Mice were then treated IP with 5-FC (500 mg/kg bid) on days 2-9 post infection and monitored for survival. Kaplan-Meier survival curves and median and 20% survival values were calculated by standard methods.
U87MG cells (5×10^5), the stringent glioma model, were stereotactically injected into the right frontal cortex of SCID mice. Tumors were established for 5 days before intratumoral injection of AdE1ACD or AdCMVCD (10^8 or 10^9 pfu/mouse). Mice were then treated IP with 5-FC (500 mg/kg bid) on days 2-9 post infection and monitored for survival. Kaplan-Meier survival curves and median and 20% survival values were calculated by standard methods.

Nc1nc(=O)[nH]cc1F [5-FC, 5-fluorocytosine]
Survival 20% (Table 6): 61
Survival Median (Table 6): 50
Survival 20% (Table 8): 34
Survival Median (Table 8): 34
Survival 20% (Table 11): 60
Survival Median (Table 11): 57
median survival (U87MG, no virus/5-FC): 57 days
